Measurements: PMC9867380, “Ageing Curtails the Diversity and Functionality of Nascent CD8^+ T Cell Responses against SARS-CoV-2” (Vaccines, 2023)
Like-named read-outs stand apart in the source and are kept apart here.

Tests used:
[1] = test system: primed CD8^+ T cells (PBMCs from HLA-A2 donors); type: cell-based, human
HLA-A2 = biological target: T1, HLA-A2 (Homo sapiens, UniProt P04439, D140Y/D185E/D98H/E176V/E277Q/G131W/G231S/I119V/I121R/I166T/I218V/L300P/L318F/N151K/N90K/P208A/P217A/Q86G/Q94H/R138H/R169H/T345S); experiment: HLA–peptide binding assay (surface stabilization of HLA-A2 on T2 cells); details: differences especially at 10^−5 M and 10^−6 M
T1 construct: T2 cells, a lymphoma-derived line expressing low amounts of HLA-A2; endogenous in cells; host or cells: T2 cells

[2] = old donors (65–69 years, n = 8), peptide 1 μM, day 10 after priming, 24 h ELISpot, positive above 50 SFUs per 10^6 cells

| Sequence | IFN-γ responses in old donors [1, 2] | IFN-γ responses in old donors [1] | Relative affinity for HLA-A2 (binding hierarchy among the peptides) (HLA-A2) |
| --- | --- | --- | --- |
| KIADYNYKL [HLA-A2-restricted SARS-CoV-2 spike-derived peptide, residues 417–425] | no responses |  |  |
| MLDMYSVML [HLA-A2-restricted SARS-CoV-2 peptide from RdRpol, residues 5291–5299] | limited to a single donor |  |  |
| SLVKPSFYV [HLA-A2-restricted SARS-CoV-2 peptide from protein E, residues 50–58] | limited to a single donor |  |  |
| HLVDFQVTI [HLA-A2-restricted SARS-CoV-2 peptide from ORF6, residues 3–11] |  | limited to a single donor |  |
| TLDSKTQSL [HLA-A2-restricted SARS-CoV-2 spike-derived peptide, residues 109–117] | no responses |  | lowest relative affinities |
| YLQPRTFLL [HLA-A2-restricted SARS-CoV-2 spike-derived peptide, residues 269–277] |  |  | lowest relative affinities |
| LLYDANYFL [HLA-A2-restricted SARS-CoV-2 peptide from ORF3a, residues 139–147] | limited to a single donor |  |  |
